Consider seven compounds from PMC10605010, “Immunotechniques for the Group Determination of Macrolide Antibiotics Traces in the Environment Using a Volume-Mediated Sensitivity Enhancement Strategy” (Biosensors, 2023).

≈ marks a conversion by molar mass, not a printed value. Where “and” joins values, the source holds several entries; their conditions need not be identical. Equal values may be shown once. Read-outs that look alike come from different tables or passages of the source.

Assay [1] relates to anti-BSA-cmoCLA(ae) antibodies. Briefly: Indirect competitive ELISA (icELISA), variants by coating antigen. The assay is classed as binding, rabbit. The conditions noted are these: for CR: CLA = 100. The method, then: In present work, we investigated and compared several new-designed and previously established coating antigens, which were adsorbed on the 96-well Costar plates from 0.1 to 3.0 µg/mL solutions in CBB (pH 9.6) overnight at 4 °C. […] Solutions of these analytes (1 pg/mL–1 μg/mL) were added to wells of the plate along with anti-cmoCLA antibody in PBS-T with 1%BSA and incubated for 1 h at 25 °C in plate-shaker ST-3 L (ELMI Ltd. laboratory equipment, Riga, Latvia). GAR-HRP was used to detect antigen-antibody formed complexes for 1 h at 37 °C. The activity of the bound enzyme was detected using TMB-substrate mixture, and the intensity of colored product was read at 450 nm using a LisaScan spectrophotometer (Erba Mannheim, Czech Republic). […] The relative antibody-binding absorbance (B/B0) was determined for each concentration of analyte and used to construct a calibration curve as B/B0 versus the concentration. Structurally related macrolides CLA, ESE, ROX, AZI, DIR, TUL, and OLE were analyzed for their cross-reactions. […] Assay sensitivity, limit of detection (LOD), and working range of the assay were set as values of IC50, IC10, and IC20-IC80 range, respectively.

Assay [2] concerns anti-BSA-cmoCLA(ae) antibodies. Also on record: method as in PMID 25256165. As to conditions: coating antigen GEL-cmoCLA(ae), cited from earlier work; for IC50: homologous; for CR: CLA = 100, recalculated from ref 18.
Assay [3] has as its system antibody to immunogen BSA-cmoERY(ma). Also on record: method as in PMID 25308648. As to conditions: milk; ERY = 100; cited from earlier work.
Assay [4] concerns antibody to immunogen BSA-cmoCLA(ae). Also on record: method as in doi:10.1039/C9QM00429G. The conditions noted are these: milk, cited from earlier work; for CR: CLA = 100.
For assay [5] the test system is unchanged. Further details: method as in PMID 32693204. As to conditions: breast milk, cited from earlier work; for CR: CLA = 100.
Assay [6] has as its system antibody to immunogen BSA-cmoERY(ma). The conditions noted are these: milk; ERY = 100; cited from earlier work.
[7] abbreviates: coating antigen OVA-aecAZI(dma).

The IC50 is the point on the concentration scale where inhibition reaches its midpoint. Take `CO[C@H]1C[C@H](O[C@H]2[C@H](C)[C@@H](O[C@@H]3O[C@H](C)C[C@H](N(C)C)[C@H]3O)[C@@H](C)C[C@@]3(CO3)C(=O)[C@H](C)[C@@H](O)[C@@H](C)[C@@H](C)OC(=O)[C@@H]2C)O[C@@H](C)[C@@H]1O` [OLE, oleandomycin]: the half-inhibitory concentration (IC50) was determined as 45.64 ng/mL (≈ 66.3 nM) in assay [1] (coating antigen OVA(pi)-aecAZI), 287.2 ng/mL (≈ 418 nM) in assay [1] (setting [7]), 40.10 ng/mL (≈ 58.3 nM) in assay [1] (coating antigen OVA-aecAZI(ga)) and 75.75 ng/mL (≈ 110 nM) in assay [1] (coating antigen OVA-cmoERY(ae)). For the same compound, the CR in assay [1] (coating antigen OVA(pi)-aecAZI) was 0.1%; in assay [1] (setting [7]), 0.05%; in assay [1] (coating antigen OVA-aecAZI(ga)) it was 0.11%; in assay [1] (coating antigen OVA-cmoERY(ae)), 0.2%.
Regarding `CC[C@H]1OC(=O)[C@H](C)[C@@H](O[C@H]2C[C@@](C)(OC)[C@@H](O)[C@H](C)O2)[C@H](C)[C@@H](O[C@@H]2O[C@H](C)C[C@H](N(C)C)[C@H]2O)[C@](C)(O)C[C@@H](C)CN(C)[C@H](C)[C@@H](O)[C@]1(C)O` [AZI, azithromycin], the IC50 is recorded as 0.107 ng/mL (≈ 0.143 nM) in assay [1] (coating antigen OVA(pi)-aecAZI); 1.220 ng/mL (≈ 1.63 nM) in assay [1] (setting [7]); 0.315 ng/mL (≈ 0.421 nM) in assay [1] (coating antigen OVA-aecAZI(ga)); 1.990 ng/mL (≈ 2.66 nM) in assay [1] (coating antigen OVA-cmoERY(ae)); 1.63 ng/mL (≈ 2.18 nM) in assay [2]. In addition, the CR was 41% and 41.1% in assay [1] (coating antigen OVA(pi)-aecAZI); 12.9% in assay [1] (setting [7]); 13.7% in assay [1] (coating antigen OVA-aecAZI(ga)); 9% and 8.6% in assay [1] (coating antigen OVA-cmoERY(ae)); 9% and 8.8% in assay [2]; 0.9% in assay [3]. The CR in assay [4] was 16.2%; in assay [5] it was 5.7%. Also, the “CR (detectability)” value in assay [1] (span over all ELISAs utilizing coated AZI conjugates) is given as 13–41%.
As for `CC[C@H]1OC(=O)[C@H](C)[C@@H](O[C@H]2C[C@@](C)(OC)[C@@H](O)[C@H](C)O2)[C@H](C)[C@@H](O[C@@H]2O[C@H](C)C[C@H](N(C)C)[C@H]2O)[C@](C)(O)C[C@@H](C)[C@@H]2N[C@@H](COCCOC)O[C@H]([C@H]2C)[C@]1(C)O` [DIR, dirithromycin], the IC50 in assay [1] (coating antigen OVA(pi)-aecAZI) came to 0.096 ng/mL (≈ 0.115 nM); in assay [1] (setting [7]), 0.544 ng/mL (≈ 0.651 nM); in assay [1] (coating antigen OVA-aecAZI(ga)), 0.136 ng/mL (≈ 0.163 nM); in assay [1] (coating antigen OVA-cmoERY(ae)), 0.554 ng/mL (≈ 0.663 nM). Also, the CR in assay [1] (coating antigen OVA(pi)-aecAZI) is listed as 45.8%; in assay [1] (setting [7]) it was 28.9%; in assay [1] (coating antigen OVA-aecAZI(ga)), 31.6%; in assay [1] (coating antigen OVA-cmoERY(ae)), 31%; in assay [3], 157%; in assay [5], 5.4%. In addition, in assay [6], the CR is 157%.
`CC[C@H]1OC(=O)[C@H](C)[C@@H](O[C@H]2C[C@@](C)(OC)[C@@H](O)[C@H](C)O2)[C@H](C)[C@@H](O[C@@H]2O[C@H](C)C[C@H](N(C)C)[C@H]2O)[C@](C)(OC)C[C@@H](C)C(=O)[C@H](C)[C@@H](O)[C@]1(C)O` [CLA, clarithromycin]: the half-maximal inhibitory concentration (IC50) in assay [1] (coating antigen OVA(pi)-aecAZI) is on record as 0.044 ng/mL (≈ 0.0588 nM); in assay [1] (setting [7]) it was 0.157 ng/mL (≈ 0.21 nM); in assay [1] (coating antigen OVA-aecAZI(ga)) it was 0.043 ng/mL (≈ 0.0575 nM); in assay [1] (coating antigen OVA-cmoERY(ae)), 0.172 ng/mL (≈ 0.23 nM); in assay [2] it was 0.16 ng/mL (≈ 0.214 nM); in assay [4], 0.16 ng/mL (≈ 0.214 nM). In addition, the IC50 in assay [5] is given as 0.45 ng/mL (≈ 0.602 nM). Besides, the CR in assay [1] (coating antigen OVA(pi)-aecAZI) is 100%; in assay [1] (setting [7]) it was 100%; in assay [1] (coating antigen OVA-aecAZI(ga)), 100%; in assay [1] (coating antigen OVA-cmoERY(ae)), 100%; in assay [2] it was 100%; in assay [3] it was 26.7%. For the same compound, the figures for the CR in assay [4], in assay [5] and in assay [6] were 100%, 100% and 26.7%, respectively. Also, the LOD was 0.095 ng/mL in assay [4] and 0.12 ng/mL in assay [5].
On to `CC[C@H]1OC(=O)[C@H](C)[C@@H](O[C@H]2C[C@@](C)(OC)[C@@H](O)[C@H](C)O2)[C@H](C)[C@@H](O[C@@H]2O[C@H](C)C[C@H](N(C)C)[C@H]2O)[C@](C)(O)C[C@@H](C)/C(=N\OCOCCOC)[C@H](C)[C@@H](O)[C@]1(C)O` [ROX, roxithromycin], for which the concentration for half-maximal inhibition (IC50) in assay [1] (coating antigen OVA(pi)-aecAZI) is reported as 0.051 ng/mL (≈ 0.0609 nM); in assay [1] (setting [7]) it was 0.157 ng/mL (≈ 0.188 nM); in assay [1] (coating antigen OVA-aecAZI(ga)), 0.040 ng/mL (≈ 0.0478 nM); in assay [1] (coating antigen OVA-cmoERY(ae)), 0.125 ng/mL (≈ 0.149 nM); in assay [2], 0.14 ng/mL (≈ 0.167 nM). Moreover, the CR was 86.3% in assay [1] (coating antigen OVA(pi)-aecAZI); 100% in assay [1] (setting [7]); 107.5% in assay [1] (coating antigen OVA-aecAZI(ga)); 137.6% in assay [1] (coating antigen OVA-cmoERY(ae)); 125% in assay [2]; 14.8% in assay [3]. The CR in assay [4] is listed as 21.1%; in assay [5], 97.8%; in assay [6] it was 92%.
For `CCOC(=O)CCC(=O)O[C@H]1[C@H](O[C@@H]2[C@@H](C)[C@H](O[C@H]3C[C@@](C)(OC)[C@@H](O)[C@H](C)O3)[C@@H](C)C(=O)O[C@H](CC)[C@@](C)(O)[C@H](O)[C@@H](C)C(=O)[C@H](C)C[C@@]2(C)O)O[C@H](C)C[C@@H]1N(C)C` [ESE, erythromycin ethyl succinate], the IC50 is 0.074 ng/mL in assay [1] (coating antigen OVA(pi)-aecAZI), 0.352 ng/mL in assay [1] (setting [7]), 0.094 ng/mL in assay [1] (coating antigen OVA-aecAZI(ga)) and 0.466 ng/mL in assay [1] (coating antigen OVA-cmoERY(ae)). The CR in assay [1] (coating antigen OVA(pi)-aecAZI) is 59.5%; in assay [1] (setting [7]), 44.6%; in assay [1] (coating antigen OVA-aecAZI(ga)), 45.7%; in assay [1] (coating antigen OVA-cmoERY(ae)), 37% and 36.9%; in assay [6], 43.7%.
Consider `CCCNC[C@]1(O)[C@H](C)O[C@@H](O[C@H]2[C@H](C)[C@@H](O[C@@H]3O[C@H](C)C[C@H](N(C)C)[C@H]3O)[C@](C)(O)C[C@@H](C)CN[C@H](C)[C@@H](O)[C@](C)(O)[C@@H](CC)OC(=O)[C@@H]2C)C[C@@]1(C)OC` [TUL, tulathromycin], for which the IC50 in assay [1] (coating antigen OVA(pi)-aecAZI) is listed as 5.403 ng/mL (≈ 6.7 nM); in assay [1] (setting [7]), 379.5 ng/mL (≈ 471 nM); in assay [1] (coating antigen OVA-aecAZI(ga)) it was 134.8 ng/mL (≈ 167 nM); in assay [1] (coating antigen OVA-cmoERY(ae)), 629.9 ng/mL (≈ 781 nM). Besides, the CR in assay [1] (coating antigen OVA(pi)-aecAZI) was 0.81%; in assay [1] (setting [7]), 0.04%; in assay [1] (coating antigen OVA-aecAZI(ga)), 0.03%.
